Results from patent US5977133A, “Pyridone antibiotic with improved safety profile” (priority 1998, dated 1999).

Key:
[1] = test system: S. aureus (CiproS); assay: In vitro MIC, agar dilution; assay type: cell-based; conditions: S. aureus (CiproS), 21 isolates
[2] = test system: S. aureus (CiproR); assay: In vitro MIC, agar dilution; assay type: cell-based; conditions: S. aureus (CiproR), 25 isolates
[3] = test system: S. epidermidis (CiproS); assay: In vitro MIC, agar dilution; assay type: cell-based; conditions: S. epidermidis (CiproS), 23 isolates
[4] = test system: S. epidermidis (CiproR); assay: In vitro MIC, agar dilution; assay type: cell-based; conditions: S. epidermidis (CiproR), 11 isolates
[5] = test system: S. pneumoniae (PenS); assay: In vitro MIC, agar dilution; assay type: cell-based; conditions: S. pneumoniae (PenS), 20 isolates
[6] = test system: S. pneumoniae (PenR); assay: In vitro MIC, agar dilution; assay type: cell-based; conditions: S. pneumoniae (PenR), 25 isolates
[7] = test system: S. pneumoniae (CiproR); assay: In vitro MIC, agar dilution; assay type: cell-based; conditions: S. pneumoniae (CiproR), 3 isolates
[8] = test system: S. pyogenes; assay: In vitro MIC, agar dilution; assay type: cell-based; conditions: S. pyogenes, 21 isolates
[9] = test system: E. faecium (CiproS); assay: In vitro MIC, agar dilution; assay type: cell-based; conditions: E. faecium (CiproS), 16 isolates
[10] = test system: E. faecium (CiproR); assay: In vitro MIC, agar dilution; assay type: cell-based; conditions: E. faecium (CiproR), 2 isolates
[11] = test system: E. faecalis (VanS); assay: In vitro MIC, agar dilution; assay type: cell-based; conditions: E. faecalis (VanS), 17 isolates
[12] = test system: Enterococcus spp. (VanR); assay: In vitro MIC, agar dilution; assay type: cell-based; conditions: Enterococcus spp. (VanR), 21 isolates
[13] = test system: E. coli; assay: In vitro MIC, agar dilution; assay type: cell-based; conditions: 25 isolates
Procedure: (§1) Each plate was inoculated with 1:100 (or 1:10 for slow-growing strains, primarily Micrococcus and Streptococcus) dilutions of up to 32 different microorganisms, using a Steers replicator block calibrated to deliver approximately 10^4 colony forming units (CFU's). The inoculated plates were incubated at from about 35° C. to about 37 ° C. for approximately 20-24 hours. In addition, a control plate using BHI agar containing no test compound was prepared and incubated at the beginning and at the end of each test. The quinolone antibacterial ciprofloxacin was used as a control ("Cntl").
(§2) The numbers below the microorganism species indicate the nunbers of isolates tested. […] The MIC is defined as the lowest concentration of test compound yielding no growth (a slight haze or sparsely isolated colonies at the inoculum spot) as compared to the growth control containing no test compound.

[14] = test system: Salmonella spp.; assay: In vitro MIC, agar dilution; assay type: cell-based; conditions: 23 isolates
Procedure: as §1, §2

[15] = test system: Klebsiella spp.; assay: In vitro MIC, agar dilution; assay type: cell-based; conditions: Klebsiella spp., 29 isolates
[16] = test system: C. freundii; assay: In vitro MIC, agar dilution; assay type: cell-based; conditions: C. freundii, 20 isolates
[17] = test system: P. mirabilis; assay: In vitro MIC, agar dilution; assay type: cell-based; conditions: P. mirabilis, 20 isolates
[18] = test system: Providencia spp.; assay: In vitro MIC, agar dilution; assay type: cell-based; conditions: Providencia spp., 28 isolates
[19] = test system: Enterobacter spp.; assay: In vitro MIC, agar dilution; assay type: cell-based; conditions: Enterobacter spp., 35 isolates
[20] = test system: P. aeruginosa (CiproS); assay: In vitro MIC, agar dilution; assay type: cell-based; conditions: P. aeruginosa (CiproS), 24 isolates
[21] = test system: P. aeruginosa (CiproR); assay: In vitro MIC, agar dilution; assay type: cell-based; conditions: P. aeruginosa (CiproR), 20 isolates
[22] = test system: B. fragilis; assay: In vitro MIC, agar dilution; assay type: cell-based; conditions: B. fragilis, 18 isolates
[23] = test system: C. difficile; assay: In vitro MIC, agar dilution; assay type: cell-based; conditions: C. difficile, 10 isolates
[24] = test system: C. perfringens; assay: microbe, parasite or virus in culture; assay type: cell-based; conditions: C. perfringens, 13 isolates
[25] = test system: H. influenzae; assay: In vitro MIC, agar dilution; assay type: cell-based; conditions: H. influenzae, 18 isolates
[26] = test system: M. catarrhalis; assay: In vitro MIC, agar dilution; assay type: cell-based; conditions: M. catarrhalis, 18 isolates
[27] = test system: Legionella spp.; assay: microbe, parasite or virus in culture; assay type: cell-based
[28] = test system: M. pneumoniae; assay: In vitro MIC, agar dilution; assay type: cell-based; conditions: M. pneumoniae, 7 isolates
[29] = test system: N. gonorrhoeae; assay: In vitro MIC, agar dilution; assay type: cell-based; conditions: N. gonorrhoeae, 12 isolates
[30] = test system: H. pylori; assay: In vitro MIC, agar dilution; assay type: cell-based; conditions: H. pylori, 17 isolates
[31] = test system: M. avium; assay: In vitro MIC, agar dilution; assay type: cell-based; conditions: M. avium, 20 isolates
[32] = mice, single intraperitoneal injection, 21 days

Cc1c(N2CC[C@H](N)C2)c(F)cn2c(=O)c(C(=O)O)cc(C3CC3)c12.Cl [Example 3, 1-cyclopropyl-8-(3(S)-3-amino-1-pyrrolidinyl)-7-fluoro-9-methyl-4-oxo-4H-quinolizine-3-carboxylic acid hydrochloride]
MIC Range [1]: 0.015 to 0.06 µg/mL | MIC50 [2]: 0.25 µg/mL | MIC90 [2]: 0.5 µg/mL | MIC Range [2]: 0.06 to 2 µg/mL | MIC50 [3]: 0.03 µg/mL | MIC90 [3]: 0.06 µg/mL | MIC Range [3]: 0.015 to 0.06 µg/mL | MIC50 [4]: 0.25 µg/mL | MIC90 [4]: 1 µg/mL | MIC Range [4]: 0.25 to 2 µg/mL | MIC50 [5]: 0.06 µg/mL | MIC90 [5]: 0.12 µg/mL | MIC Range [5]: 0.06 to 0.12 µg/mL | MIC50 [6]: 0.12 µg/mL | MIC90 [6]: 0.12 µg/mL | MIC Range [6]: 0.06 to 0.12 µg/mL | MIC Range [7]: 0.12 to 0.25 µg/mL | MIC50 [8]: 0.03 µg/mL | MIC90 [8]: 0.06 µg/mL | MIC Range [8]: 0.015 to 0.06 µg/mL | MIC50 [9]: 0.5 µg/mL | MIC90 [9]: 1 µg/mL | MIC Range [9]: 0.25 to 1 µg/mL | MIC Range [10]: 1 to 4 µg/mL | MIC50 [11]: 0.25 µg/mL | MIC90 [11]: 0.25 µg/mL | MIC Range [11]: 0.12 to 0.25 µg/mL | MIC50 [12]: 0.5 µg/mL | MIC90 [12]: 1 µg/mL | MIC Range [12]: 0.12 to 4 µg/mL | MIC50 [13]: 0.03 µg/mL | MIC90 [13]: 0.06 µg/mL | MIC50 [14]: 0.06 µg/mL | MIC90 [14]: 0.06 µg/mL | MIC50 [15]: 0.12 µg/mL | MIC90 [15]: 0.12 µg/mL | MIC Range [15]: 0.015 to 0.5 µg/mL | MIC50 [16]: 0.06 µg/mL | MIC90 [16]: 0.25 µg/mL | MIC Range [16]: 0.015 to 0.25 µg/mL | MIC50 [17]: 0.12 µg/mL | MIC90 [17]: 0.25 µg/mL | MIC Range [17]: 0.06 to 0.25 µg/mL | MIC50 [18]: 0.12 µg/mL | MIC90 [18]: 0.25 µg/mL | MIC Range [18]: 0.03 to 1 µg/mL | MIC50 [19]: 0.06 µg/mL | MIC90 [19]: 0.12 µg/mL | MIC Range [19]: 0.03 to 0.5 µg/mL | MIC50 [20]: 0.25 µg/mL | MIC90 [20]: 1 µg/mL | MIC Range [20]: 0.12 to 1 µg/mL | MIC50 [21]: 16 µg/mL | MIC90 [21]: 32 µg/mL | MIC Range [21]: 16 to 64 µg/mL | MIC50 [22]: 0.25 µg/mL | MIC90 [22]: 0.5 µg/mL | MIC Range [22]: 0.12 to 0.5 µg/mL | MIC50 [23]: 0.25 µg/mL | MIC90 [23]: 0.5 µg/mL | MIC Range [23]: 0.25 to 0.5 µg/mL | MIC50 [24]: 0.12 µg/mL | MIC90 [24]: 0.25 µg/mL | MIC Range [24]: 0.06 to 0.25 µg/mL | MIC50 [25]: 0.015 µg/mL | MIC90 [25]: 0.03 µg/mL | MIC Range [25]: 0.008 to 0.06 µg/mL | MIC50 [26]: 0.06 µg/mL | MIC90 [26]: 0.06 µg/mL | MIC Range [26]: 0.015 to 0.06 µg/mL | MIC50 [27]: 0.5 µg/mL | MIC90 [27]: 1 µg/mL | MIC Range [27]: 0.5 to 1 µg/mL | MIC Range [28]: 0.06 to 0.12 µg/mL | MIC50 [29]: 0.008 µg/mL | MIC90 [29]: 0.03 µg/mL | MIC Range [29]: 0.008 to 0.06 µg/mL | MIC50 [30]: 0.12 µg/mL | MIC90 [30]: 0.25 µg/mL | MIC Range [30]: 0.06 to 0.5 µg/mL | MIC50 [31]: 4 µg/mL | MIC90 [31]: 16 µg/mL | MIC Range [31]: 1 to 32 µg/mL | LD50 [32]: 105.0 mg/kg
